Data reported in publication PMC12827894, “Structure-guided design of picomolar-level macrocyclic TRPC5 channel inhibitors with antidepressant activity” (Acta Pharmaceutica Sinica. B, 2025).
Read-outs that look alike come from different tables or passages of the source.

What was measured:
PDE3 A = molecular target: T1, PDE3 A (Homo sapiens, UniProt Q14432); assay: SafetyOne44 panel: PDE3A; type: biochemical; conditions: 10 μmol/L, read-out: Antagonist JDIC-127 @10 μmol/L
T1 construct: purchased ICE Bioscience ICESTP™ SafetyOne44 Panel

in vivo = conditions: male, C57BL/6, mouse; for Vd: C57BL/6, 2 mpk
C57BL/6J mice [1] = assay: m-CPP-induced anxiety model, marble burying test; type: in vivo; conditions: p.o.
TRPV1 = TRPV1 (Homo sapiens, UniProt Q8NER1); assay: Patch-clamp selectivity, TRPV1; type: cell-based; conditions: 10 μmol/L
TRPC3 = TRPC3 (Homo sapiens, UniProt Q13507); assay: Patch-clamp selectivity, TRPC3; type: cell-based; conditions: 1 μmol/L
C57BL/6J mice [2] = assay: m-CPP-induced anxiety model, open field test; type: in vivo; conditions: 10 mg/kg p.o.
TRPC6 = TRPC6 (Homo sapiens, UniProt Q9Y210); assay: Patch-clamp selectivity, TRPC6; type: cell-based; conditions: 1 μmol/L
V1a = V1a (Homo sapiens, UniProt P37288); conditions: agonist mode
ACHE = molecular target: T2, ACHE (Homo sapiens, UniProt P22303); assay: biochemical; conditions: 10 μmol/L, read-out: Antagonist JDIC-127 @10 μmol/L
T2 construct: purchased ICE Bioscience ICESTP™ SafetyOne44 Panel

CB2 = molecular target: T3, CB2 (Homo sapiens, UniProt P34972); assay: cell-based; type: cell-based
T3 construct: purchased ICE Bioscience ICESTP™ SafetyOne44 Panel

TRPM3 = TRPM3 (Homo sapiens, UniProt Q9HCF6); assay: Patch-clamp selectivity, TRPM3; type: cell-based; conditions: 10 μmol/L
M3 = molecular target: T4, M3 (Homo sapiens, UniProt P20309); assay: cell-based; type: cell-based
T4 construct: purchased ICE Bioscience ICESTP SafetyOne44 Panel

H1 = H1 (Homo sapiens, UniProt P35367); conditions: H1, agonist mode
TRPC5 F576A = molecular target: T5, TRPC5 F576A (Homo sapiens, UniProt Q9UL62, F576A); assay: Inhibition of TRPC5 mutant F576A; type: cell-based; conditions: TRPC5 F576A vs wild type
T5 construct: full-length wild-type or mutant TRPC5 was cloned into a pcDNA3.1 vector; expressed in transfected cells; host or cells: HEK293T

α2A = molecular target: T6, α2A (Homo sapiens, UniProt P08913); assay: cell-based; type: cell-based
T6 construct: purchased ICE Bioscience ICESTP SafetyOne44 Panel

M1 = molecular target: T7, M1 (Homo sapiens, UniProt P11229); assay: cell-based; type: cell-based
T7 construct: purchased ICE Bioscience ICESTP SafetyOne44 Panel

TRPC5 = molecular target: T8, TRPC5 (Homo sapiens, UniProt Q9UL62); type: cell-based; conditions: 100 nmol/L EA; read-out: IC50, TRPC5, whole-cell patch-clamp
T8 sequence (Q9UL62 1-973): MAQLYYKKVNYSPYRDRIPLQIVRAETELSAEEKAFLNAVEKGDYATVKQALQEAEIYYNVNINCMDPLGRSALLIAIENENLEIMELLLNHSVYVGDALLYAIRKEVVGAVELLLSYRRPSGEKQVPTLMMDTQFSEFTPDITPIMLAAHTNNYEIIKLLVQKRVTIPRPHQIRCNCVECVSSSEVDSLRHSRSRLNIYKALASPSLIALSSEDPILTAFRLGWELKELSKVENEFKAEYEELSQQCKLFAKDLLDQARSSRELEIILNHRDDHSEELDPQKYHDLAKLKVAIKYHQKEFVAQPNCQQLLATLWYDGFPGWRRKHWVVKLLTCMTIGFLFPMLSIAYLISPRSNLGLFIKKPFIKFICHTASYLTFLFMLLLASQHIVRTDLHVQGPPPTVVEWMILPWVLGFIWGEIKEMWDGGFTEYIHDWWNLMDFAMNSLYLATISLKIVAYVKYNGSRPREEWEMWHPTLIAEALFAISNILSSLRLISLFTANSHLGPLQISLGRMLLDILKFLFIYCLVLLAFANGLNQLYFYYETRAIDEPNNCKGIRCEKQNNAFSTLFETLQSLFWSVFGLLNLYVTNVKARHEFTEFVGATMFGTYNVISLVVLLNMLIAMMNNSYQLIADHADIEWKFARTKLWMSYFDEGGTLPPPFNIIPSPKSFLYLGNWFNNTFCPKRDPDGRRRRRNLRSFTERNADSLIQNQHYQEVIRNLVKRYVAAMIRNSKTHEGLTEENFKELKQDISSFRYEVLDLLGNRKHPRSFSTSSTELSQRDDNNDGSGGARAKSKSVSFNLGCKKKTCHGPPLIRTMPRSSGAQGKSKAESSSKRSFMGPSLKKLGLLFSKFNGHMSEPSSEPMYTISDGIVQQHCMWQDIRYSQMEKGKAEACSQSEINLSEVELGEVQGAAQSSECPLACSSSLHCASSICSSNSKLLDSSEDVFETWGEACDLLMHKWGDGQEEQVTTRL

T4 sequence (P20309 whole entry): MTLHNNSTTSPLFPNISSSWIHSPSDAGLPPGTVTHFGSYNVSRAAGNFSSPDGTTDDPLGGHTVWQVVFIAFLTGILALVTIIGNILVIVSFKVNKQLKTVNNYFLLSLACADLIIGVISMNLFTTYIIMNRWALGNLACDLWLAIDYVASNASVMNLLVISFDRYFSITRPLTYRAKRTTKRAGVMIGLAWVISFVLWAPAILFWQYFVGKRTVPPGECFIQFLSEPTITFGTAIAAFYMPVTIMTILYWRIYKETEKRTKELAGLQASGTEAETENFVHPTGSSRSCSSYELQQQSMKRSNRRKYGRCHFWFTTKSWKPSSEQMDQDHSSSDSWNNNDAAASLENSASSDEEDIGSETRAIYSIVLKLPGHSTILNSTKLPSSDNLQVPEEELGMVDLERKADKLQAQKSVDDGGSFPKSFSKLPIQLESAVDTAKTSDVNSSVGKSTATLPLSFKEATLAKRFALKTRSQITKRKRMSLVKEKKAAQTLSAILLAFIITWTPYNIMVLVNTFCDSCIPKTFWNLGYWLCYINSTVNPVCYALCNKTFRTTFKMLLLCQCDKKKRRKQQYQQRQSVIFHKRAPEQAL
T7 sequence (P11229 whole entry): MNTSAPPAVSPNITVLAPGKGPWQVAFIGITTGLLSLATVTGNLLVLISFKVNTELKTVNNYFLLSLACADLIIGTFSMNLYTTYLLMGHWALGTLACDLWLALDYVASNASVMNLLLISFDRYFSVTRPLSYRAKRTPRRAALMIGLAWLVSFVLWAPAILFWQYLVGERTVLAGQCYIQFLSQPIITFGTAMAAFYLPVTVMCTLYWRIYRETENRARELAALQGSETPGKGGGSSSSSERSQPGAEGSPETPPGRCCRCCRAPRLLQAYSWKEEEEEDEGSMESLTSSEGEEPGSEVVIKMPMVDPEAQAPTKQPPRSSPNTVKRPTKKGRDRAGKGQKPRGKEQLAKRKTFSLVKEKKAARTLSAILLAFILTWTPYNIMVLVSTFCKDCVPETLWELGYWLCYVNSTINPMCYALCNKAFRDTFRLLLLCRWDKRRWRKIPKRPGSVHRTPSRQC
T6 sequence (P08913 whole entry): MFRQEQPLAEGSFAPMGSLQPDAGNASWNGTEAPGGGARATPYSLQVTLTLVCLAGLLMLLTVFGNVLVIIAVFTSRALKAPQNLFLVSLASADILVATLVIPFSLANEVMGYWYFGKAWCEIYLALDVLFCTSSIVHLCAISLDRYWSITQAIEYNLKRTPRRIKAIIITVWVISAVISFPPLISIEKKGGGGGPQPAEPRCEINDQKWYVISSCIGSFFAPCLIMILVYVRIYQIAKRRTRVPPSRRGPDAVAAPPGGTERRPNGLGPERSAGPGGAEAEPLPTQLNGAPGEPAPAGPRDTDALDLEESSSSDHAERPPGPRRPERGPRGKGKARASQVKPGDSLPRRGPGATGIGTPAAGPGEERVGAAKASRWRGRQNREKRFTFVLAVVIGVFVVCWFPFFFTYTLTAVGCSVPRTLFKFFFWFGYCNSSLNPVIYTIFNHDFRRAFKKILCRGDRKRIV
T3 sequence (P34972 whole entry): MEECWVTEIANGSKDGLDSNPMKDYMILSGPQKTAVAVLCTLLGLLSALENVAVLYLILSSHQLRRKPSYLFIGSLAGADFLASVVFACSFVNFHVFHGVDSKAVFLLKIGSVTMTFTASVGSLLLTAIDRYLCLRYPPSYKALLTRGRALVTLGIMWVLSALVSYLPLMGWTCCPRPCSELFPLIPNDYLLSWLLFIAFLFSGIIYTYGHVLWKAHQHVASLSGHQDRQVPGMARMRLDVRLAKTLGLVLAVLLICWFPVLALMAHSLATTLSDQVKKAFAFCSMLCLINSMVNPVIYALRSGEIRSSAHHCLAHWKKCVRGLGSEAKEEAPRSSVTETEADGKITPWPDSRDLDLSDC
T1 sequence (Q14432 whole entry): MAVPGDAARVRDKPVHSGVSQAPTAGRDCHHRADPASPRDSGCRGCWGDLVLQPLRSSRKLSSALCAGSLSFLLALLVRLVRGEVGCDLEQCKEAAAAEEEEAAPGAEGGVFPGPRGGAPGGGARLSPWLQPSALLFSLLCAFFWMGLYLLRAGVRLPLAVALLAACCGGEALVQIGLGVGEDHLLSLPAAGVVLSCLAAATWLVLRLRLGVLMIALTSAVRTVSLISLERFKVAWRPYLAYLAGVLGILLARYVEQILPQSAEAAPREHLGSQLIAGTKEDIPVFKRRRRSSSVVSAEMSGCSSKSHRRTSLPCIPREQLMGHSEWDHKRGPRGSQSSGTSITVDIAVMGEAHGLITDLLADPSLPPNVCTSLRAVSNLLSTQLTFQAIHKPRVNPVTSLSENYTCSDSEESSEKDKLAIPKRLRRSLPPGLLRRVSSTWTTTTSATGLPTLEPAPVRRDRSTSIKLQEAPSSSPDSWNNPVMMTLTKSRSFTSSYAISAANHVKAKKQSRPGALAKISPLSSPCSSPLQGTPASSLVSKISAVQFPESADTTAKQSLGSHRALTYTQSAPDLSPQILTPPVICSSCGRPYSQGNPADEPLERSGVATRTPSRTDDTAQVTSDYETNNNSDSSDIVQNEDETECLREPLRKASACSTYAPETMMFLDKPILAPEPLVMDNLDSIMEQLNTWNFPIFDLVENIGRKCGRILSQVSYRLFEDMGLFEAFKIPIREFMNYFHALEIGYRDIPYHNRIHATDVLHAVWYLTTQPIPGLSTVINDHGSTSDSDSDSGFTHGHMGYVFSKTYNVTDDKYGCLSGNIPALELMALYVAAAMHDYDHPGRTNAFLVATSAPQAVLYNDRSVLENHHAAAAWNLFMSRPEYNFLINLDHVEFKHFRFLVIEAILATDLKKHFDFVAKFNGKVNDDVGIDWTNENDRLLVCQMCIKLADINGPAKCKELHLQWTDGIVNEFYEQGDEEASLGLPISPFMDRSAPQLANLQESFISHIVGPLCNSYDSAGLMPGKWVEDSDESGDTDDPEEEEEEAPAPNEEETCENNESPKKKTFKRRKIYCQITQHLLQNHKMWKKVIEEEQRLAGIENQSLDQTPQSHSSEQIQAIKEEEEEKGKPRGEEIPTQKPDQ
TRPM3, sequence (Q9HCF6 whole entry, species assumed): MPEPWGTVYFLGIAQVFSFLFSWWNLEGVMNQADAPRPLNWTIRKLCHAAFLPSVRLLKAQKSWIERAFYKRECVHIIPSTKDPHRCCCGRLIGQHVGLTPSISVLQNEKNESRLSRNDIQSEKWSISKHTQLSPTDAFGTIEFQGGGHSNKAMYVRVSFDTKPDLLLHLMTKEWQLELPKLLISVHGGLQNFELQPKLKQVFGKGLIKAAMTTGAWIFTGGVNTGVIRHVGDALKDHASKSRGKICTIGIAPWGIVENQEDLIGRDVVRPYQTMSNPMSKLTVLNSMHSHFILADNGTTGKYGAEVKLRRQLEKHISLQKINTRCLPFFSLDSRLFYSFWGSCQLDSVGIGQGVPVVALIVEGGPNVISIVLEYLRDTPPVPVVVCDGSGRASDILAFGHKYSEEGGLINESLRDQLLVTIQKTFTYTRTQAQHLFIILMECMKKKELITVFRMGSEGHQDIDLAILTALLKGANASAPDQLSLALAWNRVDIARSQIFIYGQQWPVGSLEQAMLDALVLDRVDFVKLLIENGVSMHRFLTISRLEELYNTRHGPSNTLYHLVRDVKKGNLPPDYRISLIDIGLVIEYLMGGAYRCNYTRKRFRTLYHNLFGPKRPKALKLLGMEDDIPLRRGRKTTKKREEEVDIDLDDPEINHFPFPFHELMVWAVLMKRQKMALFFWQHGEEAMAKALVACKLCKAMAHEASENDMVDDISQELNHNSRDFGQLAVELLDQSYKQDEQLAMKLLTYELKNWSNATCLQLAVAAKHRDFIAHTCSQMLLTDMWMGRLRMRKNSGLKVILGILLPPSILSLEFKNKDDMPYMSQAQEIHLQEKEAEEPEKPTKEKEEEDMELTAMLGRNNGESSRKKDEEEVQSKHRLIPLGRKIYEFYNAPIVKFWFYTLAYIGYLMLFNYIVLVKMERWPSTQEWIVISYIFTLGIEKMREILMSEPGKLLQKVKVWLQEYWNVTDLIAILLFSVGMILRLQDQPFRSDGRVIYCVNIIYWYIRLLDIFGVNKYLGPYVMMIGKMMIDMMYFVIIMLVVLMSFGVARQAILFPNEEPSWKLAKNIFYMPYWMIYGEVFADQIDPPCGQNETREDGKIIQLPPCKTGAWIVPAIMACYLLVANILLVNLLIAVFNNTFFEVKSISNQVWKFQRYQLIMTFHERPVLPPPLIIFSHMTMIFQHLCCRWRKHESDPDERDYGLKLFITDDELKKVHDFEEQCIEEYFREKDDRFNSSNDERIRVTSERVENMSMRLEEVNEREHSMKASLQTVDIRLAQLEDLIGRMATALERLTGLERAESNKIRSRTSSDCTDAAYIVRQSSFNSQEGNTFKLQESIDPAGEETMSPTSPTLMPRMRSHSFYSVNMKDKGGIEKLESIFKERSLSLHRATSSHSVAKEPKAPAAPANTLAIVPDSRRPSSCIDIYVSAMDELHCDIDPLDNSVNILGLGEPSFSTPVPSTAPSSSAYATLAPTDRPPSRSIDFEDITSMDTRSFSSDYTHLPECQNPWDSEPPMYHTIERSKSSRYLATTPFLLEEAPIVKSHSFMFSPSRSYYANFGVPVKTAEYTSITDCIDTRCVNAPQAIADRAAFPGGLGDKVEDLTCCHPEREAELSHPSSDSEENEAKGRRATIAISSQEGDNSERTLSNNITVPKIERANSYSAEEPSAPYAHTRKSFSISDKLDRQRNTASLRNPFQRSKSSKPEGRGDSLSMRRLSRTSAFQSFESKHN

## O=c1c2c3nc(n2Cc2ccc(Cl)cc2)Oc2ccc(F)c(c2)OCCCCCCn3c(=O)n1CCCO [JDIC-127]
PDE3 A
  inhibition at 10 µM: 2.27%
In vivo
  bioavailability: 7.5%
In vivo; iv, 2 mg/kg
  C0: 1450 ng/mL
  MRT: 52.8 min
  clearance: 66.8 mL/min/kg
  half-life: 59.4 min
In vivo; iv, 2 mg/kg, VSS, i.v.
  Vd: 3.51 L/kg
In vivo; iv, 2 mg/kg, Vd
  Vd: 5.71 L/kg
In vivo; po, 10 mg/kg
  Cmax: 177 ng/mL
  MRT: 114 min
  Tmax: 15 min
  half-life: 84 min
C57BL/6J mice [1]
  number of buried marbles, MBT: reduced
TRPV1
  inhibition at 10 µM: < 33%
TRPC3
  inhibition at 1 µM: < 20%
C57BL/6J mice [2]
  number of entries into the central area, OFT: significantly increased
TRPC6
  inhibition at 1 µM: < 20%
V1a
  Agonist JDIC-127 @10 μmol/L: –7.01%
ACHE
  inhibition at 10 µM: 0.88%
CB2; CB2, agonist mode
  Agonist JDIC-127 @10 μmol/L: 26.01%
CB2; CB2, antagonist mode, 10 μmol/L, read-out: Antagonist JDIC-127 @10 μmol/L
  inhibition at 10 µM: -0.84%
i.v., 2 mg/kg, 2 min
  Cbr: 407.01 nmol/kg
  Cpl: 367.10 nmol/L
i.v., 2 mg/kg, 45 min
  Cbr: 198.65 nmol/kg
  Cpl: 51.63 nmol/L
i.v., 2 mg/kg, 180 min
  Cbr: 74.96 nmol/kg
  Cpl: 10.12 nmol/L
p.o., 10 mg/kg, 2 min
  Cbr: 22.16 nmol/kg
  Cpl: 6.36 nmol/L
p.o., 10 mg/kg, 45 min
  Cbr: 223.33 nmol/kg
  Cpl: 88.83 nmol/L
p.o., 10 mg/kg, 180 min
  Cbr: 7.35 nmol/kg
  Cpl: 22.96 nmol/L
TRPM3
  inhibition at 10 µM: < 33%
M3; M3, agonist mode
  Agonist JDIC-127 @10 μmol/L: 0.99%
M3; M3, antagonist mode, 10 μmol/L, read-out: Antagonist JDIC-127 @10 μmol/L
  inhibition at 10 µM: -1.46%
H1
  Agonist JDIC-127 @10 μmol/L: 3.21%
TRPC5 F576A
  effect of mutation on inhibitory potency of JDIC-127: significantly diminished
α2A; agonist mode
  Agonist JDIC-127 @10 μmol/L: –1.14%
α2A; antagonist mode, 10 μmol/L, read-out: Antagonist JDIC-127 @10 μmol/L
  inhibition at 10 µM: -8.62%
M1; M1, agonist mode
  Agonist JDIC-127 @10 μmol/L: –0.83%
M1; M1, antagonist mode, 10 μmol/L, read-out: Antagonist JDIC-127 @10 μmol/L
  inhibition at 10 µM: 0.22%
TRPC5
  IC50: 0.374 nM
